Test results as given in PMC9806845, “Recombinant actin-depolymerizing factor of the apicomplexan Neospora caninum (NcADF) is susceptible to oxidation” (Frontiers in Cellular and Infection Microbiology, 2022).

Biological target: T1, NcADF (Neospora caninum, UniProt F0VCT8)
T1 construct: gene NCLIV_012510; N-terminal 6xHis tag, pET28(a), E. coli BL21(DE3), IMAC; 18 kDa; cysteines at 11, 58, 65, 75; TCEP-reduced before assay
T1 sequence (F0VCT8 1-118): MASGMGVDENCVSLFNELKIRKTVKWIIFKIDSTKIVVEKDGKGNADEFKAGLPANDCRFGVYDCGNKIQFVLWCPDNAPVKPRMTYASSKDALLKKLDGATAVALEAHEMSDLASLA
Assay: DTNB free-thiol assay; also biotin-iodoacetamide alkylation and SDS-PAGE dimerization
Format: biochemical
Details: covalent (cysteine oxidation, reversible disulfide dimers); 25 uM protein, 20 mM Tris pH 7.0, 30 min

## O=S(=O)(O)CCNCl [NCT, N-chlorotaurine]
  DTNB free-thiol assay; also biotin-iodoacetamide alkylation and SDS-PAGE dimeriz: micromolar concentration of NCT, but not of H2O2, was sufficient to oxidize the protein
